From patent US20130196977A1, “USE OF ORGANIC COMPOUNDS” (priority 2004, published 2013)
“Also recorded” adds a separate entry of the source.

What was measured:
Type in all cases: in vivo, rat
[1] = system: double transgenic rats expressing human renin and human angiotensinogen (dTGR); assay: Cardiac hypertrophy index at sacrifice in dTGR; details: for cardiac hypertrophy index score: p<0.05
Experimental: To circumvent this problem, transgenic rats have been developed harboring either the human renin or the human angiotensinogen genes. […] Consequently, the single transgenic rats (i.e., transgenic for either human angiotensinogen or renin) are normotensive. […] As an example, four-week-old, male dTGR are allowed to develop hypertension and are placed in metabolic cages at 5.5 weeks of age. Systolic blood pressure (tail-cuff) and 24 h albumin excretion (ELISA, CellTrend, Germany) are measured as described earlier by Muller et al. Am J Pathol. 2002, 161:1679-93 and Muller et al. Am J Pathol. 2004, 164:521-32. The dTGR are matched at week 6 in terms of 24 h albumin excretion and distributed in five groups of 19 rats each. Treatments begin when the rats are aged 6 weeks. The rats receive vehicle treatment, aliskiren at 0.3 mg/kg/day and 3 mg/kg/day (by subcutaneous minipump), valsartan 1 mg/kg/day, and valsartan 10 mg/kg/day (given in the food). The low dose of valsartan is selected as a threshold treatment to reduce mortality yet only minimally effect blood pressure and organ damage. We know from earlier studies that vehicle-treated animals would not survive beyond 8 weeks of age and thus this low dose valsartan group will serve as a control group at 9 weeks. Echocardiography (M-mode tracings in the short axis and Tissue-Doppler-imaging;, n=5-6 per group at weeks 7 and 9) is performed with a 15 MHz phased-array transducer under isoflurane anesthesia (Mazak et al. Circulation. 2004; 109:2792-800). Three measurements per heart are determined, averaged, and statistically analyzed. M-mode is performed in a LV short axis and measured according to the leading edge-method. Total wall thickness is calculated as sum of septum+left ventricular posterior wall. Rats are sacrificed at age 9 weeks. The kidneys and hearts are removed and washed with ice-cold saline, blotted dry, and weighed. Tissue preparation and immunohistological techniques are performed as previously described Muller et al. Am J Pathol. 2002, 161:1679-93. Sections are incubated with primary antibodies against rat monocytes/macrophages (ED-1, Serotec, Germany), MHC II+, CD4+, and CD86+ cells (all BD Pharmingen, Germany). Scoring of infiltrated cells is performed using the program KS 300 3.0 (Zeiss, Germany). Fifteen different areas of each kidney (n=5 in all groups) are analyzed. A mean score for each animal is computed and used to derive a group mean score. Analyses are conducted without knowledge of the specific treatment.

[2] = system: double transgenic rats expressing human renin and human angiotensinogen (dTGR); assay: M-mode echocardiography of LV wall thickness / hypertrophy in dTGR; details: dTGR at 9 weeks
Experimental: (§1) As an example, four-week-old, male dTGR are allowed to develop hypertension and are placed in metabolic cages at 5.5 weeks of age. Systolic blood pressure (tail-cuff) and 24 h albumin excretion (ELISA, CellTrend, Germany) are measured as described earlier by Muller et al. Am J Pathol. 2002, 161:1679-93 and Muller et al. Am J Pathol. 2004, 164:521-32. The dTGR are matched at week 6 in terms of 24 h albumin excretion and distributed in five groups of 19 rats each. Treatments begin when the rats are aged 6 weeks. The rats receive vehicle treatment, aliskiren at 0.3 mg/kg/day and 3 mg/kg/day (by subcutaneous minipump), valsartan 1 mg/kg/day, and valsartan 10 mg/kg/day (given in the food). The low dose of valsartan is selected as a threshold treatment to reduce mortality yet only minimally effect blood pressure and organ damage. We know from earlier studies that vehicle-treated animals would not survive beyond 8 weeks of age and thus this low dose valsartan group will serve as a control group at 9 weeks. Echocardiography (M-mode tracings in the short axis and Tissue-Doppler-imaging;, n=5-6 per group at weeks 7 and 9) is performed with a 15 MHz phased-array transducer under isoflurane anesthesia (Mazak et al. Circulation. 2004; 109:2792-800). Three measurements per heart are determined, averaged, and statistically analyzed. M-mode is performed in a LV short axis and measured according to the leading edge-method. Total wall thickness is calculated as sum of septum+left ventricular posterior wall.

[3] = system: double transgenic rats expressing human renin and human angiotensinogen (dTGR); assay: Tissue Doppler assessment of diastolic filling (Ea/Aa) in dTGR; details: dTGR at 9 weeks
Experimental: as §1
Tissue Doppler measures the velocity of the longitudinal cardiac movement at the basal septum, allowing assessment of diastolic filling Tissue Doppler measurements are performed with the sample volume in the basal septum in a four-chamber view. […] The measurements represent velocities of peak early (Ea) and late (Aa) diastolic expansion velocities. The Ea/Aa ratio is reported as an index of diastolic function.

[4] = system: α-myosin heavy chain (α-MHC) and β-MHC mRNA; assay: RT-PCR of left ventricular α-MHC and β-MHC mRNA in dTGR; details: left ventricle, 9 weeks
Experimental: as §1, with “wall. For RT-PCR, LV mRNA is isolated with TRIZOL (Gibco Life Technology). RT-PCR for α-myosin heavy chain (α-MHC) and β-MHC, as well as for atrial natriuretic peptide (ANP) is carried out in 25 μL SybrGreen PCR Master Mix (Applied Biosystems, Germany) containing […] primer and 1 μL of the reverse transcription reaction in a 5700 Sequence Detection System (Applied Biosystems). Thermal cycling conditions comprise an initial denaturation step at 95° C. for 10 min, followed by 95° C. for 15 s and 65° C. for 1 min for 40 cycles. mRNA expression is standardized to the hypoxanthine phosphoribosyl transferase gene as a housekeeping gene (primer sequences available on request).” for “wall.”

[5] = system: atrial natriuretic peptide (ANP) mRNA; assay: RT-PCR of left ventricular ANP mRNA in dTGR; details: 9 weeks
Experimental: as §1, with “wall. For RT-PCR, LV mRNA is isolated with TRIZOL (Gibco Life Technology). RT-PCR for α-myosin heavy chain (α-MHC) and β-MHC, as well as for atrial natriuretic peptide (ANP) is carried out in 25 μL SybrGreen PCR Master Mix (Applied Biosystems, Germany) containing […] primer and 1 μL of the reverse transcription reaction in a 5700 Sequence Detection System (Applied Biosystems). […]” for “wall.”

[6] = aliskiren 3 mg/kg/d, listed as Alisk
[7] = valsartan 1 mg/kg/d in the food
[8] = valsartan 10 mg/kg/d in the food

## COCCCOc1cc(C[C@@H](C[C@H](N)[C@@H](O)C[C@H](C(=O)NCC(C)(C)C(N)=O)C(C)C)C(C)C)ccc1OC [aliskiren, 2(S),4(S),5(S),7(S)—N-(3-amino-2,2-dimethyl-3-oxopropyl)-2,7-di(1-methylethyl)-4-hydroxy-5-amino-8-[4-methoxy-3-(3-methoxy-propoxy)phenyl]-octanamide]
[1]; aliskiren 0.3 mg/kg/d subcutaneous minipump from week 6, age 9 weeks
  cardiac hypertrophy index score: decreases
[1]; aliskiren 3 mg/kg/d subcutaneous minipump from week 6, age 9 weeks
  cardiac hypertrophy index score: decreases
[1]; aliskiren 3 mg/kg/d, age 9 weeks
  cardiac hypertrophy index compared to valsartan 10 mg/kg/d treated dTGR: significantly lower
[2]; aliskiren 0.3 mg/kg/d
  left ventricular hypertrophy (in words): markedly ameliorated
[2]; aliskiren 0.3 mg/kg/d, listed as Aliskiren
  left ventricular hypertrophy (in words): reduce left ventricular hypertrophy
[2]; aliskiren 3 mg/kg/d subcutaneous minipump
  wall thickness (septum + LV posterior wall): about 2.2 mm
[2]; aliskiren 3 mg/kg/d
  left ventricular hypertrophy (in words): markedly ameliorated; also recorded: lowest wall thickness values
[2]; [6]
  left ventricular hypertrophy (in words): reduce left ventricular hypertrophy; also recorded: normalized LV dimensions
[3]; aliskiren 0.3 mg/kg/d (low dose) subcutaneous minipump
  Ea/Aa ratio: about 1.5
[3]; aliskiren 0.3 mg/kg/d (low dose) subcutaneous minipump, listed as Alisk
  Ea/Aa ratio: 1.5
[3]; aliskiren 0.3 mg/kg/d
  diastolic dysfunction / diastolic filling (in words): markedly improve
[3]; aliskiren 0.3 mg/kg/d, listed as Alisk
  diastolic dysfunction / diastolic filling (in words): appropriate diastolic filling
[3]; aliskiren 3 mg/kg/d (high dose) subcutaneous minipump
  Ea/Aa ratio: about 1.4
[3]; aliskiren 3 mg/kg/d (high dose) subcutaneous minipump, listed as Alisk
  Ea/Aa ratio: 1.5
[3]; aliskiren 3 mg/kg/d
  diastolic dysfunction / diastolic filling (in words): markedly improve; also recorded: best diastolic filling
[3]; [6]
  diastolic dysfunction / diastolic filling (in words): appropriate diastolic filling
[4]; aliskiren 0.3 mg/kg/d
  shift from α-MHC expression to the fetal β-MHC isoform (LV mRNA): prevent the shift
[4]; aliskiren 3 mg/kg/d
  shift from α-MHC expression to the fetal β-MHC isoform (LV mRNA): prevent the shift
[4]; aliskiren 3 mg/kg/d, listed as Aliskiren
  shift from α-MHC expression to the fetal β-MHC isoform (LV mRNA): most effective
[5]; aliskiren 0.3 mg/kg/d
  LV ANP mRNA expression compared to valsartan 1 mg/kg/d treated dTGR: reduced
[5]; aliskiren 3 mg/kg/d
  LV ANP mRNA expression compared to valsartan 1 mg/kg/d treated dTGR: reduced

## CCCCC(=O)N(Cc1ccc(-c2ccccc2-c2nnn[nH]2)cc1)[C@H](C(=O)O)C(C)C [valsartan]
[1]; valsartan 10 mg/kg/d in the food from week 6, age 9 weeks
  cardiac hypertrophy index score: decreases
[2]; [7]
  wall thickness (septum + LV posterior wall): about 3.4 mm
[2]; valsartan 1 mg/kg/d
  left ventricular hypertrophy (in words): concentric hypertrophy; also recorded: severe left ventricular hypertrophy; also recorded: severe septal and posterior wall hypertrophy
[2]; [8]
  wall thickness (septum + LV posterior wall): about 2.7 mm
[2]; valsartan 10 mg/kg/d
  left ventricular hypertrophy (in words): markedly ameliorated
[2]; valsartan 10 mg/kg/d, listed as Val
  left ventricular hypertrophy (in words): reduces septal and posterior wall hypertrophy substantially
[3]; [7]
  Ea/Aa ratio: about 0.68
[3]; valsartan 1 mg/kg/d in the food, listed as Val
  Ea/Aa ratio: 0.66
[3]; valsartan 1 mg/kg/d
  diastolic dysfunction / diastolic filling (in words): marked diastolic dysfunction
[3]; valsartan 1 mg/kg/d, listed as Val
  diastolic dysfunction / diastolic filling (in words): severe diastolic dysfunction
[3]; valsartan 10 mg/kg/d (high dose)
  diastolic dysfunction / diastolic filling (in words): still present
[3]; valsartan 10 mg/kg/d (high dose), listed as Val
  diastolic dysfunction / diastolic filling (in words): indicating diastolic dysfunction
[3]; [8]
  Ea/Aa ratio: about 1.0
[3]; valsartan 10 mg/kg/d in the food, listed as Val
  Ea/Aa ratio: 1.0
[4]; valsartan 10 mg/kg/d
  shift from α-MHC expression to the fetal β-MHC isoform (LV mRNA): prevent the shift
[5]; valsartan 10 mg/kg/d
  LV ANP mRNA expression compared to valsartan 1 mg/kg/d treated dTGR: reduces the expression of this gene, but not to a significant degree
